This is an account of results in US20240083845A1 (priority 2020, published 2024).

Molecules are shown by their SMILES.

The target of this test is SARS-CoV-2 Mpro (Severe acute respiratory syndrome coronavirus 2, UniProt P0DTD1). Description: SARS-CoV-2 Mpro enzyme assay (FRET). The conditions noted are these: FRET substrate Dabcyl-KTSAVLQSGFRKM-E(Edans)-Amide, 20 nM enzyme, 30 min preincubation at 30° C., mean n=2; read-out: SARS-CoV-2 Mpro enzyme assay pKi (converted). Type of test: biochemical.
Take `C[C@@H](CC(=O)N[C@@H](CC(C)(C)C)C(=O)NC(C[C@@H]1CCNC1=O)C(=O)C(=O)NC1CC1)c1ccccc1` (stereo partly drawn) [Example 12, (2S)-N-(4-(cyclopropylamino)-3,4-dioxo-1-((S)-2-oxopyrrolidin-3-yl)butan-2-yl)-4,4-dimethyl-2-((S)-3-phenylbutanamido)pentanamide]: the Ki was 15.8 nM. For `CC(C)(C)C[C@H](NC(=O)C[C@@H](c1ccccc1)C(F)(F)F)C(=O)NC(C[C@@H]1CCNC1=O)C(=O)C(=O)NC1CC1` (single isomer, unassigned) [Example 16], the Ki is 20 nM. Under `NC(=O)C(=O)C(C[C@@H]1CCNC1=O)NC(=O)[C@H](CC1CC1)NC(=O)/C=C/c1ccc(Cl)cc1F` (stereo partly drawn) [Example 1, 3-((S)-2-((E)-3-(4-chloro-2-fluorophenyl)acrylamido)-3-cyclopropylpropanamido)-2-oxo-4-((S)-2-oxopyrrolidin-3-yl)butanamide] stands 12.6 nM; under `C[C@H](CC(=O)N[C@@H](CC(C)(C)C)C(=O)NC(C[C@@H]1CCNC1=O)C(=O)C(=O)NC1CC1)c1ccccc1` (stereo partly drawn) [Example 13, (2S)-N-(4-(cyclopropylamino)-3,4-dioxo-1-((S)-2-oxopyrrolidin-3-yl)butan-2-yl)-4,4-dimethyl-2-((R)-3-phenylbutanamido)pentanamide], 15.8 nM. For the molecule `NC(=O)C(=O)C(C[C@@H]1CCNC1=O)NC(=O)[C@H](CC1CC1)NC(=O)/C=C/c1ccccc1` (stereo partly drawn) [Example 2, 3-((S)-2-cinnamamido-3-cyclopropylpropanamido)-2-oxo-4-((S)-2-oxopyrrolidin-3-yl)butanamide], the Ki was 20 nM.
